Results: PubChem BioAssay (NCI)
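Assay format: 96-well plates, 48-hour exposure. TGI denotes the concentration required for complete inhibition of growth.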

Assays:
Assay in all cases: DTP human tumour cell line panel, 48 h
[1] = system: UACC-62 melanoma
[2] = system: OVCAR-3 ovarian
[3] = system: NCI-H226 lung
[4] = system: NCI-H460 lung
[5] = system: MDA-MB-231 breast
[6] = system: HL-60(TB) leukemia
[7] = system: HCC-2998 colon
[8] = system: NCI/ADR-RES ovarian
[9] = system: CAKI-1 renal
[10] = system: SK-MEL-28 melanoma
[11] = system: MOLT-4 leukemia
[12] = system: HS 578T breast
[13] = system: A498 renal
[14] = system: BT-549 breast
[15] = system: OVCAR-5 ovarian
[16] = system: A549 NSCLC
[17] = system: EKVX NSCLC
[18] = system: MDA-N
[19] = system: K-562 leukemia
[20] = system: COLO 205 colon
[21] = system: SF-295 CNS
[22] = system: SW-620 colon
[23] = system: ACHN renal
[24] = system: SF-268 CNS
[25] = system: HOP-62 NSCLC
[26] = system: SNB-75 CNS
[27] = system: TK-10 renal
[28] = system: SK-MEL-5 melanoma
[29] = system: HCT-15 colon
[30] = system: SNB-19 CNS
[31] = system: NCI-H522 lung
[32] = system: HCT-116 colon
[33] = system: LOX IMVI melanoma
[34] = system: HOP-92 NSCLC
[35] = system: MDA-MB-435
[36] = system: SF-539 CNS
[37] = system: KM12 colon
[38] = system: OVCAR-4 ovarian
[39] = system: RPMI-8226 leukemia
[40] = system: UACC-257 melanoma
[41] = system: RXF 393 renal
[42] = system: SN12C renal
[43] = system: OVCAR-8 ovarian
[44] = system: DU-145 prostate
[45] = system: PC-3 prostate
[46] = system: MCF7 breast
[47] = system: HT29 colon
[48] = system: U251 CNS
[49] = system: MALME-3M melanoma
[50] = system: T-47D breast
[51] = system: 786-0 renal
[52] = system: SK-MEL-2 melanoma
[53] = system: M14 melanoma
[54] = system: SK-OV-3 ovarian
[55] = system: SR leukemia
[56] = system: IGROV1 ovarian
[57] = system: NCI-H23 lung
[58] = system: CCRF-CEM leukemia
[59] = system: UO-31 renal

Q: Which TGI [1] does the source give for `O=P(Nc1ccccc1)(Oc1ccccc1)N1CCN(c2ccccc2)CC1` (stereo not drawn) here?
A: 25.8 µM

Q: What about the TGI [2] of the same compound?
A: 39.7 µM

Q: And the TGI [3]?
A: 43.9 µM

Q: And the TGI [4]?
A: 33.3 µM

Q: What about the TGI [5] of the same compound?
A: 28.9 µM

Q: What about the TGI [6] of the same compound?
A: > 100 µM

Q: And the TGI [7]?
A: 29.9 µM

Q: What about the TGI [8] of the same compound?
A: 39 µM

Q: And the TGI [9]?
A: 58.3 µM

Q: And the TGI [10]?
A: 35.2 µM

Q: What about the TGI [11] of the same compound?
A: 52.6 µM

Q: And the TGI [12]?
A: 40.5 µM

Q: And the TGI [13]?
A: 35.6 µM

Q: And the TGI [14]?
A: 29.5 µM

Q: What about the TGI [15] of the same compound?
A: 33.5 µM

Q: What about the TGI [16] of the same compound?
A: 38.5 µM

Q: What about the TGI [17] of the same compound?
A: 51.1 µM

Q: What about the TGI [18] of the same compound?
A: 31.6 µM

Q: What about the TGI [19] of the same compound?
A: > 100 µM

Q: And the TGI [20]?
A: 34.9 µM

Q: What about the TGI [21] of the same compound?
A: 33.6 µM

Q: What about the TGI [22] of the same compound?
A: 63.6 µM

Q: And the TGI [23]?
A: 53.9 µM

Q: What about the TGI [24] of the same compound?
A: 84.1 µM

Q: And the TGI [25]?
A: 32.3 µM

Q: And the TGI [26]?
A: 30.4 µM

Q: And the TGI [27]?
A: 52.2 µM

Q: What about the TGI [28] of the same compound?
A: 33.5 µM

Q: What about the TGI [29] of the same compound?
A: 35 µM

Q: What about the TGI [30] of the same compound?
A: 32.1 µM

Q: And the TGI [31]?
A: 19.7 µM

Q: And the TGI [32]?
A: 32.8 µM

Q: And the TGI [33]?
A: 33.5 µM

Q: And the TGI [34]?
A: 33.9 µM

Q: And the TGI [35]?
A: 51.5 µM

Q: What about the TGI [36] of the same compound?
A: 33.9 µM

Q: And the TGI [37]?
A: 33.5 µM

Q: What about the TGI [38] of the same compound?
A: 62.5 µM

Q: What about the TGI [39] of the same compound?
A: > 100 µM

Q: And the TGI [40]?
A: 36.7 µM

Q: What about the TGI [41] of the same compound?
A: 33.9 µM

Q: What about the TGI [42] of the same compound?
A: 36 µM

Q: And the TGI [43]?
A: 49.8 µM

Q: What about the TGI [44] of the same compound?
A: 49.4 µM

Q: And the TGI [45]?
A: 51.7 µM

Q: What about the TGI [46] of the same compound?
A: 32.1 µM

Q: What about the TGI [47] of the same compound?
A: 29.3 µM

Q: What about the TGI [48] of the same compound?
A: 30.8 µM

Q: And the TGI [49]?
A: 33.4 µM

Q: And the TGI [50]?
A: 58.5 µM

Q: And the TGI [51]?
A: 53.6 µM

Q: And the TGI [52]?
A: 35.7 µM

Q: And the TGI [53]?
A: 28.6 µM

Q: And the TGI [54]?
A: 33.3 µM

Q: And the TGI [55]?
A: > 100 µM

Q: What about the TGI [56] of the same compound?
A: 40.4 µM

Q: And the TGI [57]?
A: 36.9 µM

Q: What about the TGI [58] of the same compound?
A: > 100 µM

Q: What about the TGI [59] of the same compound?
A: 31 µM

Q: `COc1ccc(/C=C/C(=O)Oc2ccc(/C=C3\CCCCC3=O)cc2)cc1` was tested. Which TGI [1] did it give?
A: > 100 µM

Q: What about the TGI [2] of the same compound?
A: > 100 µM

Q: And the TGI [3]?
A: > 100 µM

Q: And the TGI [4]?
A: > 100 µM

Q: And the TGI [5]?
A: > 83.9 µM

Q: And the TGI [6]?
A: > 83.6 µM

Q: What about the TGI [7] of the same compound?
A: > 72.3 µM

Q: And the TGI [8]?
A: > 100 µM

Q: What about the TGI [9] of the same compound?
A: > 100 µM

Q: What about the TGI [10] of the same compound?
A: > 100 µM

Q: And the TGI [11]?
A: 7.51 µM

Q: What about the TGI [12] of the same compound?
A: > 100 µM

Q: What about the TGI [13] of the same compound?
A: > 100 µM

Q: What about the TGI [14] of the same compound?
A: > 100 µM

Q: And the TGI [15]?
A: > 100 µM

Q: What about the TGI [16] of the same compound?
A: > 100 µM

Q: And the TGI [17]?
A: > 100 µM

Q: And the TGI [18]?
A: > 100 µM

Q: What about the TGI [19] of the same compound?
A: > 100 µM

Q: What about the TGI [20] of the same compound?
A: > 93.2 µM

Q: What about the TGI [21] of the same compound?
A: 49.4 µM

Q: What about the TGI [22] of the same compound?
A: > 100 µM

Q: And the TGI [23]?
A: > 100 µM

Q: What about the TGI [24] of the same compound?
A: > 69.5 µM

Q: And the TGI [25]?
A: > 77.3 µM

Q: What about the TGI [26] of the same compound?
A: > 100 µM

Q: What about the TGI [27] of the same compound?
A: > 100 µM

Q: What about the TGI [28] of the same compound?
A: > 100 µM

Q: And the TGI [29]?
A: > 100 µM

Q: What about the TGI [30] of the same compound?
A: > 100 µM

Q: And the TGI [31]?
A: > 100 µM

Q: What about the TGI [32] of the same compound?
A: > 95.4 µM

Q: What about the TGI [33] of the same compound?
A: > 100 µM

Q: What about the TGI [34] of the same compound?
A: > 100 µM

Q: What about the TGI [35] of the same compound?
A: > 100 µM

Q: And the TGI [36]?
A: > 100 µM

Q: What about the TGI [37] of the same compound?
A: > 100 µM

Q: And the TGI [38]?
A: > 90.2 µM

Q: What about the TGI [39] of the same compound?
A: 13.9 µM

Q: What about the TGI [40] of the same compound?
A: > 100 µM

Q: What about the TGI [41] of the same compound?
A: > 100 µM

Q: And the TGI [42]?
A: > 100 µM

Q: And the TGI [43]?
A: > 100 µM

Q: What about the TGI [44] of the same compound?
A: > 100 µM

Q: What about the TGI [45] of the same compound?
A: > 100 µM

Q: And the TGI [46]?
A: > 100 µM

Q: What about the TGI [47] of the same compound?
A: 26.3 µM

Q: And the TGI [48]?
A: > 100 µM

Q: What about the TGI [49] of the same compound?
A: > 100 µM

Q: And the TGI [50]?
A: > 100 µM

Q: And the TGI [51]?
A: > 100 µM

Q: And the TGI [52]?
A: > 100 µM

Q: And the TGI [53]?
A: > 100 µM

Q: And the TGI [54]?
A: > 100 µM

Q: What about the TGI [55] of the same compound?
A: > 100 µM

Q: And the TGI [56]?
A: > 100 µM

Q: What about the TGI [57] of the same compound?
A: > 100 µM

Q: And the TGI [58]?
A: 6.77 µM

Q: What about the TGI [59] of the same compound?
A: > 100 µM
